Laboratory results reported in US6566545B2, “Menthol derivatives and process for preparing the same” (Pacific Corporation, priority 2001, dated 2003).

Legend:
[1] = system: back of New Zealand White Rabbit; test: Retinol-induced skin irritation on rabbit back, Draize Primary Irritation Index; type: in vivo; settings: for Irritation Index: Draize Primary Irritation Index, 0.01% agent applied with 1000 I.U. retinol as irritation source, twice a day, rabbit back skin; for Relative Ratio: irritation relative to blank applied only with retinol, 0.01% agent
Protocol: The hairs on the back of New Zealand White Rabbit were removed and fed with sufficient water and nutrition. At the areas of 1.5 cm×1.5 cm on the back of the rabbit, menthol, menthol 3-aminopropylphosphate (MPA) and 1000 I.U. of retinol as irritation source were applied respectively. The number of applying positions for each rabbit was 8˜10, and the agents were applied twice a day with 6 hours of time interval. The applied positions were exposed to air. Erythema, rash or edema was measured everyday after 48 hours has passed from the first apply during 1 week to observe the irritation. According to the “Primary Irritation Index” of Draize, the degree of irritation was determined. Relative irritation was calculated with the ratio to the blank sample that applied only with retinol, and the results are shown in Table 1 and FIG. 1.

phosphatase = test: Hydrolysis by phosphatase in phosphoric buffer pH 7.4, HPLC; type: in vitro ADME; settings: 3-aminopropylphosphoric acid measured by HPLC (FIG. 2)
Protocol: To clarify the activity of menthol 3-aminopropylphosphate obtained in Example 2, the hydrolysis of the menthol 3-aminopropylphosphate by a phosphatase in the skin was observed. That is, the preparation of menthol and 3-aminopropylphosphoric acid by the hydrolysis was observed.
3-aminopropylphosphate and phosphatase were added to phosphoric buffer solution with pH 7.4, then, hydrolysis was performed. The phosphatase used above was Alkaline Phosphate manufactured by SIGMA, Co., Ltd.
The amount of the 3-aminopropylphosphoric acid prepared by the hydrolysis was measured by means of HPLC, and the results are shown in FIG. 2.

[2] = Solubility in aqueous and aqueous mixed solution
Excerpt: To observe the solubility of the menthol 3-aminopropylphosphate in the aqueous phase, solubility were measure in aqueous and aqueous mixed solution.
Menthol was used as relativity group.

Structure (SMILES) | Irritation Index [1] | Relative Ratio [1] | hydrolysis by phosphatase (phosphatase) | solubility ([2]; H2O) [%] | solubility ([2]; H2O:1,3-BG = 1:1) [%] | solubility ([2]; H2O:Ethanol = 1:1) [%] | solubility ([2]; H2O:Ethanol = 5:1) [%] | aqueous solubility compared with menthol ([2]; in words)
C[C@]12CCC(=O)C=C1CC[C@@H]1[C@@H]2[C@@H](O)C[C@@]2(C)[C@H]1CC[C@]2(O)C(=O)CO [hydrocortisone] | 5.10 | 0.53 | – | – | – | – | – | –
CC1CCC(C(C)C)C(OP(=O)(O)OCCCN)C1 (stereo not drawn) [menthol 3-aminopropyl phosphate, Menthol 3-Aminopropylphosphate] | 6.07 | 0.63 | hydrolyzed by the phosphatase of the skin and formed menthol and 3-aminopropylphosphoric | 0.3 | 5 | 6 | 1 | increased very much compared with menthol itself
CC1CCC(C(C)C)C(O)C1 (stereo not drawn) [menthol] | 9.34 | 0.97 | – | – | – | – | – | –
